Legend:
VMAT2 [1] = details: cited from earlier work
[2] = PET whole brain uptake and kinetics in cynomolgus monkeys (HRRT); details: whole brain peak, baseline PET
Procedure: Anesthesia was induced by intramuscular injection of ketamine hydrochloride (approximately 10 mg/kg, Ketaminol vet. Intervet) and maintained by the administration of a mixture of sevoflurane, oxygen, and medical air after endotracheal intubation. The head was immobilized using a fixation device.[32]
Three female cynomolgus monkeys (NHP1, NHP2, and NHP3) (weight of 5.8–6.95 kg) were studied in 10 different experimental days for a total of 12 PET experiments. All PET experiments were performed using a high-resolution research tomograph (HRRT) PET scanner (Siemens Molecular Imaging, Knoxville, TN). A 6 min transmission scan was performed every time before the injection of the radioligands using a single ^137Cs source. […]
All three monkeys underwent two PET measurements on the same day at once. […] Venous blood sampling was performed manually for the measurement of protein binding, blood, and plasma radioactivity and radiometabolite analysis. […]
The regions of interest (ROIs) were delineated manually on the MRI images of each NHP for putamen, caudate, midbrain, occipital cortex, and cerebellum. […] Quantification was performed using the Logan graphical analysis, and the cerebellum was used as a reference region. […]

VMAT2 [3] = assay: PET quantification of VMAT2 binding (BPND, Logan noninvasive analysis, cerebellum reference); assay type: in vivo, cynomolgus monkey; details: for Binding potential (BPND) caudate / Binding potential (BPND) midbrain / Binding potential (BPND) putamen: Logan noninvasive analysis, cerebellum as reference region; for peak equilibrium: cynomolgus monkey brain, baseline PET
Source text: The outcome measure was the binding potential (BPND).

[4] = cited from earlier work
VMAT2 [5] = details: rats; cited from earlier work
[6] = Plasma protein binding by ultrafiltration; assay type: in vitro ADME; details: cynomolgus, cynomolgus monkey, pH 7.4, NHP plasma, baseline, read-out: plasma free fraction (fP)
Procedure: Plasma protein binding of all three radioligands was measured in duplicate in baseline conditions. NHP blood plasma (500 μL) and a PBS solution (pH 7.4, KCl 0.2 mg, KH2PO4 0.2 mg, Na2HPO4 1.42 mg, NaCl 8 mg in 1 mL) were mixed with the respective radioligand (50 μL, approx. 20 MBq in PBS). The plasma mixture was incubated for 10 min at room temperature and a small portion (20 μL) from each incubation mixture was measured in a well counter. A portion (200 μL) from all individual incubation mixtures was pipetted out into ultrafiltration tubes (Millipore Centrifree YM-30) and centrifuged at 3000 rpm for 15 min. Samples (20 μL) from each filtrate were counted in a well counter. The following formula was used to calculate the protein-bound fraction. [drawing 1] where Cpla (total) is the radioactivity concentration of the incubation mixture in plasma, CPBS (total) is the radioactivity concentration of the incubation mixture in PBS, and Cpla (filtrate) and […] the radioactivity concentrations from filtrate samples.

[7] = Radiometabolite analysis in monkey plasma by gradient radio-HPLC; assay type: in vivo, cynomolgus monkey; details: 90 min after injection
Procedure: Radiometabolite analysis was performed following a method reported elsewhere.[34] Venous blood samples (2 mL) were obtained from the monkey at different time points such as 2.5, 15, 30, 45, 60, 90, 120, 150, and 180 min after injection of [^18F]FE-DTBZ/[^18F]FE-DTBZ-d4. For [^11C]-DTBZ, venous blood samples (2 mL) were obtained at time points 2.5, 15, 30, 45, 60, and 90 min after injection. Collected blood was centrifuged at 2000g for 2 min to obtain the plasma (0.5 mL). The plasma was mixed with 1.4 times volume of acetonitrile followed by centrifugation at 2000g for 4 min. The extract was separated from the pellet and was diluted with water before injecting into the HPLC equipped with a reverse-phase μ-Bondapak HPLC column, (300 mm × 10 mm I.D). […] Peaks for radioactive compounds eluting from the column were integrated and their areas were expressed as a percentage of the sum of the areas of all detected radioactive compounds (decay-corrected to the time of injection on the HPLC). To calculate the recovery of radioactivity from the system, an aliquot (2 mL) of the eluate from the HPLC column was measured and divided by the amount of the total injected radioanalyte.

VMAT2 [8] = assay: Pretreatment and displacement PET with tetrabenazine using [^18F]FE-DTBZ-d4; assay type: in vivo, cynomolgus monkey; details: tetrabenazine 2 mg/kg
Procedure: In NHP1, one PET measurement was performed after pretreatment with tetrabenazine (2 mg/kg), which was administered 15 min prior to the administration of [^18F]FE-DTBZ-d4. In NHP2, two displacement experiments were performed with the administration of tetrabenazine (2 mg/kg) 25 min after the injection of [^18F]FE-DTBZ-d4.
The regions of interest (ROIs) were delineated manually on the MRI images of each NHP for putamen, caudate, midbrain, occipital cortex, and cerebellum. The MRI of all of the individual NHPs was coregistered to summed PET images of the whole PET measurement. The time–activity curves of NHP brain regions were generated from dynamic PET data with the application of the coregistration parameters to ROIs. Quantification was performed using the Logan graphical analysis, and the cerebellum was used as a reference region. The outcome measure was the binding potential (BPND).

Structure (SMILES)	better binding affinity over the (−)-enantiomer (VMAT2 [1])	brain uptake (SUV) [2]	Binding potential (BPND) caudate (VMAT2 [3])	peak equilibrium (VMAT2 [3])	Binding potential (BPND) midbrain (VMAT2 [3])	Binding potential (BPND) putamen (VMAT2 [3])	in vivo metabolism ([4]; large piglet model)	striatum-to-cerebellum ratio (VMAT2 [5])	fraction unbound at 10 min, 36 MBq/mL [6]	percent of unchanged radioligand in plasma [7]	bone uptake ([4]; PET/CT in pigs, compared with [^18F]FE-(+)-DTBZ)	uptake of [^18F]FE-DTBZ-d4 in caudate, putamen, and midbrain after pretreatment (VMAT2 [8]; 15 min prior to radioligand injection)	uptake of [^18F]FE-DTBZ-d4 in caudate, putamen, and midbrain in displacement experiment (VMAT2 [8]; 25 min after radioligand injection)
COc1cc2c(cc1OC)[C@H]1C[C@@H](O)[C@H](CC(C)C)CN1CC2 (single isomer, unassigned) [(+)-enantiomer, dihydrotetrabenazine]	1000 fold												
COc1cc2c(cc1OCC[18F])CCN1C[C@@H](CC(C)C)[C@H](O)C[C@H]21 [[^18F]FE-DTBZ, ^18F-fluoroethyl-(+)-dihydrotetrabenazine]		3.43 ± 0.54	3.8 ± 0.5	> 60 min	1.1 ± 0.1	4.7 ± 0.3	metabolized extensively by in vivo defluorination	relatively poor	0.56	10 ± 4%			
[2H]C([2H])([18F])C([2H])([2H])Oc1cc2c(cc1OC)[C@H]1C[C@@H](O)[C@H](CC(C)C)CN1CC2 [[^18F]FE-DTBZ-d4]		4.28 ± 1.01	4.4 ± 1.1	40 min	1.4 ± 0.4	5.5 ± 1.4			0.52 ± 0.01	30 ± 17%	lower bone uptake		
COc1cc2c(cc1OC)C1CC(=O)C(CC(C)C)CN1CC2 (centres unmarked) [tetrabenazine]												decreased almost to the level of the cerebellum and occipital cortex	clear reduction
